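All cell lines were grown in 96-well plates and treated with compound for 48 hours. GI50 is the concentration that inhibits growth by half. Definition used: TGI = concentration required for complete inhibition of growth.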
Key:
Assay in all cases: DTP human tumour cell line panel, 48 h
[1] = system: A498 renal
[2] = system: CAKI-1 renal
[3] = system: RPMI-8226 leukemia
[4] = system: SF-295 CNS
[5] = system: A549 NSCLC
[6] = system: PC-3 prostate
[7] = system: COLO 205 colon
[8] = system: HT29 colon
[9] = system: NCI-H23 lung
[10] = system: MDA-MB-435
[11] = system: U251 CNS
[12] = system: OVCAR-8 ovarian
[13] = system: UACC-257 melanoma
[14] = system: NCI-H226 lung
[15] = system: MOLT-4 leukemia
[16] = system: HL-60(TB) leukemia
[17] = system: NCI/ADR-RES ovarian
[18] = system: OVCAR-4 ovarian
[19] = system: SW-620 colon
[20] = system: BT-549 breast
[21] = system: LOX IMVI melanoma
[22] = system: EKVX NSCLC
[23] = system: HOP-92 NSCLC
[24] = system: SK-MEL-5 melanoma
[25] = system: SK-MEL-28 melanoma
[26] = system: HS 578T breast
[27] = system: SK-MEL-2 melanoma
[28] = system: UACC-62 melanoma
[29] = system: CCRF-CEM leukemia
[30] = system: HCT-15 colon
[31] = system: MCF7 breast
[32] = system: HOP-62 NSCLC
[33] = system: K-562 leukemia
[34] = system: DU-145 prostate
[35] = system: KM12 colon
[36] = system: UO-31 renal
[37] = system: HCC-2998 colon
[38] = system: MDA-MB-231 breast
[39] = system: SNB-19 CNS
[40] = system: OVCAR-3 ovarian
[41] = system: SNB-75 CNS
[42] = system: RXF 393 renal
[43] = system: 786-0 renal
[44] = system: ACHN renal
[45] = system: NCI-H522 lung
[46] = system: OVCAR-5 ovarian
[47] = system: TK-10 renal
[48] = system: SR leukemia
[49] = system: SF-268 CNS
[50] = system: IGROV1 ovarian
[51] = system: NCI-H460 lung
[52] = system: HCT-116 colon
[53] = system: M14 melanoma
[54] = system: SN12C renal

Cc1cc(C)c(-c2cc(O)c(-c3c(C)cc(C)cc3C)cc2O)c(C)c1
GI50 [1]: 2.58 µM | TGI [1]: > 100 µM | GI50 [2]: 4.23 µM | TGI [2]: > 100 µM | GI50 [3]: 5.82 µM | TGI [3]: > 100 µM | GI50 [4]: 2.68 µM | TGI [4]: > 100 µM | GI50 [5]: 4.6 µM | TGI [5]: > 100 µM | GI50 [6]: 4.44 µM | TGI [6]: > 100 µM | GI50 [7]: 2.27 µM | TGI [7]: 5.68 µM | GI50 [8]: 3.18 µM | TGI [8]: 65.1 µM | GI50 [9]: 4.05 µM | TGI [9]: > 100 µM | GI50 [10]: 0.482 µM | TGI [10]: > 100 µM | GI50 [11]: 4.22 µM | TGI [11]: > 100 µM | GI50 [12]: 5.37 µM | TGI [12]: > 100 µM | GI50 [13]: > 100 µM | TGI [13]: > 100 µM | GI50 [14]: 38.7 µM | TGI [14]: > 100 µM | GI50 [15]: 6.93 µM | TGI [15]: > 100 µM | GI50 [16]: 3.21 µM | TGI [16]: > 100 µM | GI50 [17]: 4.33 µM | TGI [17]: > 100 µM | GI50 [18]: 7.6 µM | TGI [18]: > 100 µM | GI50 [19]: 3.17 µM | TGI [19]: > 100 µM | GI50 [20]: 6.39 µM | TGI [20]: > 100 µM | GI50 [21]: 4.39 µM | TGI [21]: > 100 µM | GI50 [22]: 5.83 µM | TGI [22]: > 100 µM | GI50 [23]: 37.2 µM | TGI [23]: > 100 µM | GI50 [24]: 1.61 µM | TGI [24]: 31.2 µM | GI50 [25]: 8.14 µM | TGI [25]: > 100 µM | GI50 [26]: 3.29 µM | TGI [26]: > 100 µM | GI50 [27]: 4.55 µM | TGI [27]: > 100 µM | GI50 [28]: 3.18 µM | TGI [28]: > 100 µM | GI50 [29]: 4.1 µM | TGI [29]: > 100 µM | GI50 [30]: 3.73 µM | TGI [30]: > 100 µM | GI50 [31]: 2.46 µM | TGI [31]: > 100 µM | GI50 [32]: 4.55 µM | TGI [32]: > 100 µM | GI50 [33]: 2.91 µM | TGI [33]: > 100 µM | GI50 [34]: 3.35 µM | TGI [34]: 15.2 µM | GI50 [35]: 2.19 µM | TGI [35]: > 100 µM | GI50 [36]: 9.7 µM | TGI [36]: > 100 µM | GI50 [37]: 2.9 µM | TGI [37]: > 100 µM | GI50 [38]: 3.29 µM | TGI [38]: 11.3 µM | GI50 [39]: 3.58 µM | TGI [39]: > 100 µM | GI50 [40]: 2.05 µM | TGI [40]: 4.85 µM | GI50 [41]: 2.87 µM | TGI [41]: > 100 µM | GI50 [42]: 2.77 µM | TGI [42]: > 100 µM | GI50 [43]: 6.49 µM | TGI [43]: > 100 µM | GI50 [44]: 7.43 µM | TGI [44]: > 100 µM | GI50 [45]: 1.74 µM | TGI [45]: 4.46 µM | GI50 [46]: 11.3 µM | TGI [46]: > 100 µM | GI50 [47]: > 100 µM | TGI [47]: > 100 µM | GI50 [48]: 2.43 µM | TGI [48]: > 100 µM | GI50 [49]: 5.83 µM | TGI [49]: > 100 µM | GI50 [50]: 4.18 µM | TGI [50]: > 100 µM | GI50 [51]: 3.45 µM | TGI [51]: > 100 µM | GI50 [52]: 3.51 µM | TGI [52]: > 100 µM | GI50 [53]: 2.77 µM | TGI [53]: > 100 µM | GI50 [54]: 5.52 µM | TGI [54]: > 100 µM
